Results as given in patent publication US12552797B2, “Process for making (3-[cyclopropylethoxy(difluoro)methyl]-6-6[5-fluoro-6-(2,2,2-trifluoroethoxy-3-pyridyl]- [1,2,4]triazolo[4,3-a]pyrazine” (Praxis Precision Medicines, Inc., priority 2019, dated 2026).
Where “and” joins values, the source holds several entries; their conditions need not be identical. Equal values may be shown once.

Test: Particle size distribution (PSD) of Compound 1 before and after manual or jet milling (Sympatec HELOS, dry method)
Format: physicochemical
Experimental: Compound 1 was milled by manual milling or jet milling to reduce particle size. For manual milling, Compound 1 was weighed into a ceramic motor and gentle milled for ˜5 mins. Particle size distribution (PSD) of Compound 1 indicated D90=77.82 μm and D90=28.27 μm before and after manual milling of Compound 1. PSD via dry method was conducted by Sympatec HELOS particle size analyzer, and dispersing system and pressure were RODOS and 0.5 bar, respectively.
For jet milling, Compound 1 was micronized by jet milling with a yield of ˜90%. Particle size of the jet-milled material was reduced to a D90 range of 4.7 to 13.5 μm.

D10 (after jet milling, batch 1): 0.7 μm | D50 (after jet milling, batch 1): 1.8 μm | D90 (after jet milling, batch 1): 4.7 μm | D10 (after jet milling, batch 2): 1.1 μm | D50 (after jet milling, batch 2): 3.7 μm | D90 (after jet milling, batch 2): 8.3 μm | D10 (after jet milling, batch 3): 0.87 μm | D50 (after jet milling, batch 3): 5.58 μm | D90 (after jet milling, batch 3): 13.5 μm | D10 (after manual milling): 0.8 μm | D50 (after manual milling): 3.6 μm | D90 (after manual milling): 28.27 μm and 28.3 μm | D10 (before milling): 1.8 μm | D50 (before milling): 22.2 μm | D90 (before milling): 77.82 μm and 77.8 μm | D10 (before milling, batch 1): 1.8 μm | D50 (before milling, batch 1): 15.4 μm | D90 (before milling, batch 1): 80.9 μm | D10 (before milling, batch 2): 13.2 μm | D50 (before milling, batch 2): 67.3 μm | D90 (before milling, batch 2): 162.1 μm | D10 (before milling, batch 3): 14.6 μm | D50 (before milling, batch 3): 56.8 μm | D90 (before milling, batch 3): 104 μm
Compound: CCOC(F)(F)c1nnc2cnc(-c3cnc(OCC(F)(F)F)c(F)c3)cn12 [Compound 1, 3-(ethoxydifluoromethyl)-6-(5-fluoro-6-(2,2,2-trifluoroethoxy)pyridin-3-yl)-[1,2,4]triazolo[4,3-a]pyrazine]
